The source of these data is paper PMC6833013 (Molecules, 2019).

In one data set the test system is HepG2. The data set is described as follows: cells. The class given is cell-based. As to conditions: Homo sapiens, HepG2, 24 h, read-out: IC50 HepG2.
The test system of the next data set is A549. The data set is described as follows: cells. As to conditions: Homo sapiens, A549, 24 h, read-out: IC50 A549. In kind it is cell-based.
A further data set deals with RCC4-VA. The data set is described as follows: cells. In kind it is cell-based. As to conditions: Homo sapiens, 24 h, read-out: IC50 RCC4-VA.
In another data set the test system is MCF-7. Put plainly: cells. As to conditions: Homo sapiens, MCF7, 24 h, read-out: IC50 MCF-7. In kind it is cell-based.
The subject of another data set is Fa2N4. Put plainly: cells. In kind it is cell-based. As to conditions: Homo sapiens, Fa2N-4, 24 h, read-out: IC50 Fa2N4.
The subject of the next data set is HT29. Put plainly: cells. The class given is cell-based. As to conditions: Homo sapiens, HT-29, 24 h, read-out: IC50 HT29.
The test system of the next data set is Bacillus subtilis MB964. The class given is cell-based.
The subject of a further data set is RCC4-VHL. Put plainly: cells. In kind it is cell-based. As to conditions: Homo sapiens, 24 h, read-out: IC50 RCC4-VHL.

Where only a bound is given, the exact number is not on record here.

With `CC(=O)OC1CC2OC3C=C(C)CCC3(C)C1(C)C2(O)CO` [Compound 3, (4R,12S)-12-Hydroxy-12-(hydroxymethyl)trichothec-9-en-4-yl acetate], the 50% inhibitory concentration (IC50) in the data set on HepG2, in the data set with A549, in the data set on RCC4-VA, in the data set on MCF-7, in the data set on Fa2N4 and with HT29 was greater than 20 mg/L each time. Also, in the data set with RCC4-VHL, the IC50 was greater than 20 mg/L. Further, the “cytotoxic activity in all the cell lines tested” value in the data set with human cell lines was “lost all their activity”. Also, the “B. subtilis MB964 inhibition halo” value with Bacillus subtilis MB964 is “no halo”.
Consider `CCC(=O)OC1CC2OC3C=C(C)CCC3(C)C1(C)C2(O)CO` [Compound 16, (4R,12S)-12-Hydroxy-12-hydroxymethyltrichothec-9-en-4-yl propionate], for which the IC50 in the data set with HepG2, with A549, with RCC4-VA, in the data set with MCF-7, with Fa2N4 and with HT29 was greater than 20 mg/L in each case. For the same molecule, the concentration for half-maximal inhibition (IC50) in the data set with RCC4-VHL was greater than 20 mg/L. In addition, the “cytotoxic activity in all the cell lines tested” value with human cell lines is “lost all their activity”. Moreover, the “B. subtilis MB964 inhibition halo” value in the data set on Bacillus subtilis MB964 is “no halo”.

The IC50 is the midpoint of a concentration-inhibition curve.
